What was measured:
[1] = molecular target: Beta-1 adrenergic receptor (Homo sapiens, UniProt P08588); format: functional
[2] = molecular target: T1, B1 bradykinin receptor (Homo sapiens, UniProt P46663)
T1 sequence (P46663 whole entry): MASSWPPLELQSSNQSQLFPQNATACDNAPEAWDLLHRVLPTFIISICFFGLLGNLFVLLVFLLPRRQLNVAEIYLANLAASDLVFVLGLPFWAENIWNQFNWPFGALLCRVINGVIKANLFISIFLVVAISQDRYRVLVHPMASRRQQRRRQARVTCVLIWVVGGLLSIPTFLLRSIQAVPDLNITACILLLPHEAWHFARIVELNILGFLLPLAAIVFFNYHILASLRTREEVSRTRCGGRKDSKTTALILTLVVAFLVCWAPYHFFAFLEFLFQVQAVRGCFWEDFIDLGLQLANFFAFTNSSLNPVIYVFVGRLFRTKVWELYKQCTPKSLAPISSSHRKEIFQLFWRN

[3] = molecular target: T2, Corticotropin-releasing factor receptor 1 (Homo sapiens, UniProt P34998)
T2 sequence (P34998 whole entry): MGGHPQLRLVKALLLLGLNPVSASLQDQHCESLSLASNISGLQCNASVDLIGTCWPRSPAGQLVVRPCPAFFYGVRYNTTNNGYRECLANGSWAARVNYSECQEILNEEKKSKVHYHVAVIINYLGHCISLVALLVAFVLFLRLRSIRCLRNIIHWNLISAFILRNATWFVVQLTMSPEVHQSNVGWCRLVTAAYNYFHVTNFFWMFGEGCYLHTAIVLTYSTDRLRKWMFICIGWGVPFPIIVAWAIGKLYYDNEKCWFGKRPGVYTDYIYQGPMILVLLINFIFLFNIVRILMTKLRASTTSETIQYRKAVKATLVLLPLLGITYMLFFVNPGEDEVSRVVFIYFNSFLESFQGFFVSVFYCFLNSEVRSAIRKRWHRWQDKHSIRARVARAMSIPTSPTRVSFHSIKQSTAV

[4] = molecular target: Glucagon receptor (Homo sapiens, UniProt P47871)
Glucagon receptor, sequence (P47871 whole entry): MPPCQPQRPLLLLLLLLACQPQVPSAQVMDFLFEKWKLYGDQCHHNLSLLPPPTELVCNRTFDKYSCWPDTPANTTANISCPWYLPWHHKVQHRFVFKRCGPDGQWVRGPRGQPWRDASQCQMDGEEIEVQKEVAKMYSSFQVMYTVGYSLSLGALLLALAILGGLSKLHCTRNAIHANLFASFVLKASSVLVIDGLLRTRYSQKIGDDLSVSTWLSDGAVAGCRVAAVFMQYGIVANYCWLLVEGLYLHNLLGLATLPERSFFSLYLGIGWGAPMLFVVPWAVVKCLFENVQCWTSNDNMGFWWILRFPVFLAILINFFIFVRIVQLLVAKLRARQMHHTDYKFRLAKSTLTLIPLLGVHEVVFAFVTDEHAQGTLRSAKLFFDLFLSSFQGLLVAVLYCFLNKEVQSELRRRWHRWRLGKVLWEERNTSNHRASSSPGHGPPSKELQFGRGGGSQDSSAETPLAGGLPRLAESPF

[5] = molecular target: T3, Progesterone receptor (Homo sapiens, UniProt P06401)
T3 sequence (P06401 whole entry): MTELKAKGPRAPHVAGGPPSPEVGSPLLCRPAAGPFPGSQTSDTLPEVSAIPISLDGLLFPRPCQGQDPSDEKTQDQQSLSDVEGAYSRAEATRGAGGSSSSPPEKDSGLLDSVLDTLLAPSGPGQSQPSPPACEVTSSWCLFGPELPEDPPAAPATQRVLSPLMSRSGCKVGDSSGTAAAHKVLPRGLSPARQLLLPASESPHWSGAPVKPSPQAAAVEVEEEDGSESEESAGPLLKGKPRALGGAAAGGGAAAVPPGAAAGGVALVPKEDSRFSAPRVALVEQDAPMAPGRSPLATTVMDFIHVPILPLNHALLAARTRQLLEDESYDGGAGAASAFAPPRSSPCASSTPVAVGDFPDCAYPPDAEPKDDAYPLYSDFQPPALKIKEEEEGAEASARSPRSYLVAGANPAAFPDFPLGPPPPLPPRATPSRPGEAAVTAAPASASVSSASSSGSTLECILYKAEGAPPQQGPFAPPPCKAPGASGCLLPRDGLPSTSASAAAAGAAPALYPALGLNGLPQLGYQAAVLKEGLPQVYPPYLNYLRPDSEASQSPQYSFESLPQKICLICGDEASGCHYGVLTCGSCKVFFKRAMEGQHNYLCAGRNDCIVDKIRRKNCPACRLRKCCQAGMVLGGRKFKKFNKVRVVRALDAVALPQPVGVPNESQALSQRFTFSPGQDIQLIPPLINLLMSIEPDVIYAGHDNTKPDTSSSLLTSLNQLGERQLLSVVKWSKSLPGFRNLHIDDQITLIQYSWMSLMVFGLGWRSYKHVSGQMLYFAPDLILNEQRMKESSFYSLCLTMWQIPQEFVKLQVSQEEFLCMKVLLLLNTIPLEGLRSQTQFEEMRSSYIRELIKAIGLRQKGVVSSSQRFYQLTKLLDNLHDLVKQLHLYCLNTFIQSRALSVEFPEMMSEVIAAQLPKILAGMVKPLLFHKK

[6] = molecular target: Mu-type opioid receptor (Homo sapiens, UniProt P35372)
Mu-type opioid receptor, sequence (P35372 whole entry): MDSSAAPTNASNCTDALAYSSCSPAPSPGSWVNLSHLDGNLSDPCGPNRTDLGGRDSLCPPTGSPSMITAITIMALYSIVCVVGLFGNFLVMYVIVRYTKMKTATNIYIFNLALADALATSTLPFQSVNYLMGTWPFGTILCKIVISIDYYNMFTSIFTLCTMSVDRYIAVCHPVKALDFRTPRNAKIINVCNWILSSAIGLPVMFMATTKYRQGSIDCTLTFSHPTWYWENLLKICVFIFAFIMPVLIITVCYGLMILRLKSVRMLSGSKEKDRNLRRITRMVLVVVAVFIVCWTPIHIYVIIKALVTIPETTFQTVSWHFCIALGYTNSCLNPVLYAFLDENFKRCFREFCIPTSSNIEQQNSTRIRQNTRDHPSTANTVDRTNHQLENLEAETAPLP

[7] = molecular target: T4, 5-hydroxytryptamine receptor 1A (Homo sapiens, UniProt P08908)
T4 sequence (P08908 whole entry): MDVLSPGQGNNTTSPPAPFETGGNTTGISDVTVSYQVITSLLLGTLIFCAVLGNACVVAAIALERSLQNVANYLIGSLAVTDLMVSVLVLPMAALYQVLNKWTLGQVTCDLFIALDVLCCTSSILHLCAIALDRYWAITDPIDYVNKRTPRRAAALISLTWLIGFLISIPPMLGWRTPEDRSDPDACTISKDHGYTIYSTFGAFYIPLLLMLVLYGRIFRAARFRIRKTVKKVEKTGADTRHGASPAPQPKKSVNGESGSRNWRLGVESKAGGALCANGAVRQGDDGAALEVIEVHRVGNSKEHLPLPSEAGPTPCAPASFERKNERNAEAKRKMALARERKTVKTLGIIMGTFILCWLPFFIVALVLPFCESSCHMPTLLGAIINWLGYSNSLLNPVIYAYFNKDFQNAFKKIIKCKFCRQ

[8] = molecular target: Histamine H3 receptor (Homo sapiens, UniProt Q9Y5N1)
Histamine H3 receptor, sequence (Q9Y5N1 whole entry): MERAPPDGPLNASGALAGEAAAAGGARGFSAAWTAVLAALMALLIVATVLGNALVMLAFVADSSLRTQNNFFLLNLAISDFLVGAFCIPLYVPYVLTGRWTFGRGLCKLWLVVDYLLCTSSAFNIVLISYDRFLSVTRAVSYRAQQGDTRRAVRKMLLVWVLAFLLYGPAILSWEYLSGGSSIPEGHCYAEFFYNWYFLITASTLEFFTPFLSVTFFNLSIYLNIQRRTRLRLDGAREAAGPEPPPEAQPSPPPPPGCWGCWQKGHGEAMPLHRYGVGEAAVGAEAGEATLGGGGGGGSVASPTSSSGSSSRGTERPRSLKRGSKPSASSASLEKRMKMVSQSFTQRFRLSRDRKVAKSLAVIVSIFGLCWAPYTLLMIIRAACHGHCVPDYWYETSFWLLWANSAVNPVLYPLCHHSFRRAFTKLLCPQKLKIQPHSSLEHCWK

[9] = molecular target: Cannabinoid receptor 1 (Homo sapiens, UniProt P21554); format: functional, cell-based
Cannabinoid receptor 1, sequence (P21554 whole entry): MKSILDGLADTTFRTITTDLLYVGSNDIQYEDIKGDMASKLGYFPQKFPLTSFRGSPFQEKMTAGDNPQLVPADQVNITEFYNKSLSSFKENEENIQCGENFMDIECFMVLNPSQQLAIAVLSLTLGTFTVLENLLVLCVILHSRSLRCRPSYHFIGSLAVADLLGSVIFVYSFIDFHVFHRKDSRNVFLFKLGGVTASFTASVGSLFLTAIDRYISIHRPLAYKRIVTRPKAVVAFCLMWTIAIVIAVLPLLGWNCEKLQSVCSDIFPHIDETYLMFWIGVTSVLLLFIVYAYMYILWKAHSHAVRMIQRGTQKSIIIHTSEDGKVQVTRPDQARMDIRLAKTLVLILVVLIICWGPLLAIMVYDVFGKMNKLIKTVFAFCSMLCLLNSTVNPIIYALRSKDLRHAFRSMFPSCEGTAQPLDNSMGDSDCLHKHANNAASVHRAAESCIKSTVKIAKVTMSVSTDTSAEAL

[10] = molecular target: D(1A) dopamine receptor (Homo sapiens, UniProt P21728)
D(1A) dopamine receptor, sequence (P21728 whole entry): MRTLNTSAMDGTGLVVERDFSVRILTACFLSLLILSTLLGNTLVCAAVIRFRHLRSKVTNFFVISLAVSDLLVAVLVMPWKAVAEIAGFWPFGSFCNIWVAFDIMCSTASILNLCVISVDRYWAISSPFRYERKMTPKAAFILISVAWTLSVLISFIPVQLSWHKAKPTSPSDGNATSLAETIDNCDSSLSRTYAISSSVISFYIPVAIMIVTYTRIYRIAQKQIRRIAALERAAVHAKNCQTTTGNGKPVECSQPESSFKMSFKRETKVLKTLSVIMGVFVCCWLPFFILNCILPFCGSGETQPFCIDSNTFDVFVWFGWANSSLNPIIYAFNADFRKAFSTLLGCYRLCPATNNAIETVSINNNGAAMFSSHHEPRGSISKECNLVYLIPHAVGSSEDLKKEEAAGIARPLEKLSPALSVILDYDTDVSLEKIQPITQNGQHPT

[11] = molecular target: Gamma-aminobutyric acid receptor subunit alpha-1 (Rattus norvegicus, UniProt P62813)
Gamma-aminobutyric acid receptor subunit alpha-1, sequence (P62813 whole entry): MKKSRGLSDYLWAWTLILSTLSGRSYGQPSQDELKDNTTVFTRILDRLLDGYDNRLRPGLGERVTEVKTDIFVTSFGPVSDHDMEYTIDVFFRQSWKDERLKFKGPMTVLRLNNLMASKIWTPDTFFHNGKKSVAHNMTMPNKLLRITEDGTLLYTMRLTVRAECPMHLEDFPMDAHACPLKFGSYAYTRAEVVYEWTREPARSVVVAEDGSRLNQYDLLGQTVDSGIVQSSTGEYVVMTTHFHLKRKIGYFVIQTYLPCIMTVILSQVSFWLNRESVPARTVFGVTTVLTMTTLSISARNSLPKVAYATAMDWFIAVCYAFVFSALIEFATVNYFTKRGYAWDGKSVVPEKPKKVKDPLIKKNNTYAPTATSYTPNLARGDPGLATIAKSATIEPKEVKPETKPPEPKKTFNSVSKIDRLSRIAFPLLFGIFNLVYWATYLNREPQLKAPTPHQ

[12] = molecular target: T3, Progesterone receptor; remark: listed apart in the source
[13] = molecular target: Prostaglandin G/H synthase 1 (Homo sapiens, UniProt P23219); format: functional
Prostaglandin G/H synthase 1, sequence (P23219 whole entry): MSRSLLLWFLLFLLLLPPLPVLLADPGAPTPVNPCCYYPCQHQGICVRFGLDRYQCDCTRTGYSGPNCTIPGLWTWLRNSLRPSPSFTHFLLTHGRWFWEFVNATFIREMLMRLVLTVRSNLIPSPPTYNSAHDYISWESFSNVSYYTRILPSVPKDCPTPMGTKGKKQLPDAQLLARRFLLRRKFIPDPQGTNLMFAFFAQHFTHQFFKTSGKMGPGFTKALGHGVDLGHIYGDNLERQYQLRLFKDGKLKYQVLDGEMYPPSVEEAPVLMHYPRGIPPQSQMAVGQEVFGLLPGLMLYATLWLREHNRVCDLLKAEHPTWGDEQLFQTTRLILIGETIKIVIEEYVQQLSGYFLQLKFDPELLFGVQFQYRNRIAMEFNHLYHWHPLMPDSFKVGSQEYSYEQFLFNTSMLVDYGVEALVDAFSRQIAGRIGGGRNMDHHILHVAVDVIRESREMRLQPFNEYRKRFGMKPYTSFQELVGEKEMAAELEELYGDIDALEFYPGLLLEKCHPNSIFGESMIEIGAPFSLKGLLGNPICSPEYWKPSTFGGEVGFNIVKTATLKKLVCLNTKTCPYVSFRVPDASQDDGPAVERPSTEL

[14] = molecular target: Sodium-dependent serotonin transporter (Homo sapiens, UniProt P31645)
Sodium-dependent serotonin transporter, sequence (P31645 whole entry): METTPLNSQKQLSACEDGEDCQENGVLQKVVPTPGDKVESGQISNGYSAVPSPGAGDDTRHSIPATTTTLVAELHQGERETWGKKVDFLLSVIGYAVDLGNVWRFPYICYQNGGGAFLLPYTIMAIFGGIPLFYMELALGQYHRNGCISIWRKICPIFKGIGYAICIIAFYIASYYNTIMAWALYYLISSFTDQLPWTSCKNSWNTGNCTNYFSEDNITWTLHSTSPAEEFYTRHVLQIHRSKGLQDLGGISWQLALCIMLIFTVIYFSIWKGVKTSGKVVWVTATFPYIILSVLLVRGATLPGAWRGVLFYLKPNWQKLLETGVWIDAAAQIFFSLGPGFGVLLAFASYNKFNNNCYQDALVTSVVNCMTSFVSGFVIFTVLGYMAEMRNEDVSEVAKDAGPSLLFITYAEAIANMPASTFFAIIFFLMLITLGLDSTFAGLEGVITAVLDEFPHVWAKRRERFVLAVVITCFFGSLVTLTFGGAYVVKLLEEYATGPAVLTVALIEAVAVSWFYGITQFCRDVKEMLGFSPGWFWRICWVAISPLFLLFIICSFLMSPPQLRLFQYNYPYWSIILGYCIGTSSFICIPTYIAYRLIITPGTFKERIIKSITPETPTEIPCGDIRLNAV
Note: assay procedure not described here.

Beta-1 adrenergic receptor, sequence (P08588 whole entry): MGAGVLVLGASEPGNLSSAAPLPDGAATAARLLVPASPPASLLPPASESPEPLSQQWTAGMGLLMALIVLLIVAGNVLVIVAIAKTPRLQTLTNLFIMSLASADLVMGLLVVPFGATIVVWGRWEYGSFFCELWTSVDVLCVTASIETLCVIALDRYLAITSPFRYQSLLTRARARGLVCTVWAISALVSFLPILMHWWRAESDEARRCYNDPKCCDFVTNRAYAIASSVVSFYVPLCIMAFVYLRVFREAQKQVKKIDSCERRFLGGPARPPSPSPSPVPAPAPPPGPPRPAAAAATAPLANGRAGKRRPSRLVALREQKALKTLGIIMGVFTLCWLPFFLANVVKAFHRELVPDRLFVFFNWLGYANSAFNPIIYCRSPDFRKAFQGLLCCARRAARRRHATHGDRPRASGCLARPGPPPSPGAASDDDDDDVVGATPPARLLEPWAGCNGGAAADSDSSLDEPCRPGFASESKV

Structure (SMILES)	AC50 [1]	AC50 [2]	AC50 [3]	AC50 [4]	AC50 [5]	AC50 [6]	AC50 [7]	AC50 [8]	AC50 [9]	AC50 [10]	AC50 [11]	AC50 [12]	AC50 [13]	AC50 [14]
[H]/N=C(/N)N/C(=N/[H])NCCc1ccccc1 [PHENFORMIN]	> 10 µM	> 30 µM	> 30 µM	> 30 µM	> 30 µM	> 30 µM	> 10 µM	> 10 µM	–	–	–	–	–	–
CCCN[C@H]1CCc2nc(N)sc2C1 [PRAMIPEXOLE]	> 30 µM	–	–	–	–	> 30 µM	10.5 µM	> 10 µM	> 30 µM	–	–	–	–	–
COc1cc2c(cc1OC)CC(=O)N(CCCN(C)C[C@H]1Cc3cc(OC)c(OC)cc31)CC2 [IVABRADINE]	–	–	–	–	–	–	–	–	–	> 30 µM	> 30 µM	> 30 µM	> 30 µM	11.9 µM
CCC(=O)O[C@]1(C(=O)SCF)[C@H](C)C[C@H]2[C@@H]3C[C@H](F)C4=CC(=O)C=C[C@]4(C)[C@@]3(F)[C@@H](O)C[C@@]21C [FLUTICASONE PROPIONATE]	> 30 µM	> 30 µM	> 30 µM	> 30 µM	–	> 30 µM	> 10 µM	> 30 µM	> 30 µM	> 30 µM	> 30 µM	–	> 30 µM	–
COc1cc(N2CCC(N3CCN(C)CC3)CC2)ccc1Nc1ncc(Cl)c(Nc2ccccc2P(C)(C)=O)n1 [BRIGATINIB]	–	–	–	–	–	–	–	–	–	> 30 µM	> 30 µM	> 30 µM	26.3 µM	> 30 µM
CCN(CC)C(=S)S [DITIOCARB]	–	–	–	–	–	–	–	–	–	> 30 µM	> 30 µM	> 30 µM	10.3 µM	> 30 µM
CC(C)COCC(CN(Cc1ccccc1)c1ccccc1)N1CCCC1 (stereo not drawn) [BEPRIDIL]	–	> 30 µM	> 30 µM	> 30 µM	> 30 µM	–	–	> 30 µM	–	–	–	–	–	–
CCOC(=O)[C@H](CCc1ccccc1)N[C@@H](C)C(=O)N(CC(=O)O)C1Cc2ccccc2C1	–	–	–	–	–	–	–	–	–	> 30 µM	> 30 µM	> 30 µM	> 30 µM	> 30 µM
NCC(CC(=O)O)c1ccccc1 (stereo not drawn) [PHENIBUT]	–	–	–	–	–	–	–	–	–	> 30 µM	> 30 µM	> 30 µM	> 30 µM	> 30 µM
CNC1=Nc2ccc(Cl)cc2C(c2ccccc2)=[N+]([O-])C1 [CHLORDIAZEPOXIDE]	> 10 µM	–	–	–	> 30 µM	> 10 µM	> 10 µM	> 10 µM	–	–	–	–	–	–
CCC[C@H](NC(=O)[C@@H]1[C@H]2CCC[C@H]2CN1C(=O)[C@@H](NC(=O)[C@@H](NC(=O)c1cnccn1)C1CCCCC1)C(C)(C)C)C(=O)C(=O)NC1CC1	> 10 µM	–	–	–	> 30 µM	> 30 µM	> 10 µM	> 10 µM	–	–	–	–	–	–
CC(N)Cc1ccc(O)cc1 (stereo not drawn) [HYDROXYAMPHETAMINE]	–	–	–	–	–	–	–	–	–	> 30 µM	> 30 µM	> 30 µM	> 30 µM	> 30 µM
CC(C(=O)O)c1ccc(-c2ccccc2)c(F)c1 (stereo not drawn) [FLURBIPROFEN]	> 10 µM	–	–	–	–	> 30 µM	–	–	–	> 30 µM	> 30 µM	–	–	–
NC(=O)OCC(O)COc1ccc(Cl)cc1 (stereo not drawn) [CHLORPHENESIN CARBAMATE]	–	–	–	–	–	–	–	–	–	> 30 µM	> 30 µM	> 30 µM	> 30 µM	> 30 µM
CCCC(CCC)C(N)=O [VALPROMIDE]	> 10 µM	–	–	–	> 30 µM	> 30 µM	> 10 µM	> 10 µM	> 30 µM	–	–	–	–	–
C=CCSCC1Nc2cc(Cl)c(S(N)(=O)=O)cc2S(=O)(=O)N1 (stereo not drawn) [ALTHIAZIDE]	–	–	–	–	–	–	–	–	–	> 30 µM	> 30 µM	> 30 µM	> 30 µM	> 30 µM
O=C(O)c1cn(C2CC2)c2cc(N3CCNCC3)c(F)cc2c1=O [CIPROFLOXACIN]	–	> 30 µM	> 30 µM	> 30 µM	> 30 µM	–	–	–	–	–	–	> 30 µM	–	–
CN1C(=O)/C(=N\NC(N)=S)c2ccccc21 [METHISAZONE]	–	–	–	–	–	–	–	–	–	> 30 µM	12.3 µM	> 30 µM	> 30 µM	> 30 µM
CCCCC(=O)O[C@]1(C(=O)CO)[C@@H](C)C[C@H]2[C@@H]3CCC4=CC(=O)C=C[C@]4(C)[C@@]3(F)[C@@H](O)C[C@@]21C [BETAMETHASONE VALERATE]	> 10 µM	–	–	–	0.13 µM	> 30 µM	> 10 µM	> 10 µM	> 30 µM	–	–	–	–	–
CN(C)CCOC(c1ccccc1)c1ccc(Br)cc1 (stereo not drawn) [BROMODIPHENHYDRAMINE]	–	–	–	–	–	–	–	–	–	2.95 µM	> 30 µM	> 30 µM	> 30 µM	0.207 µM
Cc1cc(NC(=O)C2=C(O)c3ccccc3S(=O)(=O)N2C)no1 [ISOXICAM]	–	–	–	–	–	–	–	–	–	> 30 µM	> 30 µM	> 30 µM	> 30 µM	> 30 µM
O=[N+]([O-])c1ccc(O)c2ncccc12 [NITROXOLINE]	–	–	–	–	–	–	–	–	> 30 µM	> 30 µM	> 30 µM	> 30 µM	> 30 µM	> 30 µM
Cc1cc(N)c2ccccc2[n+]1CCCCCCCCCC[n+]1c(C)cc(N)c2ccccc21	–	–	–	–	–	–	–	–	–	1.04 µM	24.6 µM	16 µM	1.57 µM	0.185 µM
Cc1cnc(C(=O)NCCc2ccc(S(=O)(=O)NC(=O)NC3CCCCC3)cc2)cn1 [GLIPIZIDE]	> 10 µM	> 30 µM	> 30 µM	> 30 µM	> 30 µM	–	> 10 µM	> 10 µM	–	–	–	> 30 µM	–	–
CC(C)NCC(O)c1ccc(O)c(O)c1 (stereo not drawn) [ISOPROTERENOL]	–	> 30 µM	> 30 µM	> 30 µM	> 30 µM	> 30 µM	> 10 µM	> 10 µM	> 30 µM	–	–	–	–	–
CN1CCC(=C2c3ccccc3CCc3cccnc32)CC1 [AZATADINE]	> 10 µM	–	–	–	> 30 µM	> 30 µM	5.69 µM	> 10 µM	> 30 µM	–	–	–	–	–
